Source: ChEMBL document CHEMBL1145653, “The alkaloids of Corydalis meifolia” (J Nat Prod, 1983)

Key:
[1] = tested on: Ileum; assay: Spasmolytic activity against guinea pig ileum assessed as inhibition of spasmogen-induced contraction at 50 ug; format: functional, Cavia porcellus
[2] = tested on: Ileum; assay: Spasmolytic activity against guinea pig ileum assessed as inhibition of spasmogen-induced contraction at 10 ug; format: functional, Cavia porcellus

Row | SMILES | inhibition (INH) [1] [%] | inhibition (INH) [2] [%]
1 | COc1cc2c(cc1OC)[C@H]1[C@@H](C)c3ccc4c(c3CN1CC2)OCO4 [CAVIDINE] | 100 | 84
2 | COc1cc2c(cc1OC)[C@@H]([C@H]1OC(=O)c3c1ccc1c3OCO1)N(C)CC2 [CORLUMINE] | 50 | 0
3 | COc1cc2c(cc1OC)-c1c(C)c3ccc4c(c3c[n+]1CC2)OCO4.[Cl-] [DEHYDROCAVIDINE] | 40 | 20
4 | COc1cc2c(cc1OC)[C@]1([C@H](O)c3ccc4c(c3[C@@H]1O)OCO4)N(C)CC2 [YEMHUSOMINE] | 52 | 17
